{
  "source": "patent EP2767543B1",
  "about": "“SALTS OF CARBAMOYL PHOSPHONIC ACID ESTERS WHICH ACT AS SELECTIVE INHIBITORS OF HUMAN IMMUNODEFICIENCY VIRUS HIV-1 PRODUCTION” (Aktsionernoe Obshcestvo \"Proizvodstvenno-Kommercheskaya …, priority 2011, dated 2013)",
  "key": {"[1]": {"test": "Stability analysis of 1% water solutions at room temperature", "type": "physicochemical", "details": "within a month", "experimental": "The stability analysis for the obtained compounds in the form of 1% water solutions at room temperature was carried out. The acid form of the carbamoyl phosphonate and ammonia salt degrade by 40% and 2%, respectively, within a month; no destruction products were detected for the rest of salts within a month."}, "MT-4 cells": {"system": "MT-4 cells", "test": "Cytotoxicity assessment in MT-4 cells (MTT / formazan method, 4 days)", "type": "cell-based", "details": "concentration that reduces MT-4 cell vitality by 50%, day 4, MTT", "experimental": "Cytotoxicity of a drug is estimated by adding its delution in RPMI-1640 serum-free medium to MT-4 cell suspension placed in cavities of the 96-cavity board (Cel-Cult, England), up to the ultimate concentrations of 0.001-100 µg/ml (three cavities per dose), with subsequent cultivation at 37°C within 4 days. The inoculation concentration is 0.5x10^6 cell particles in 1 mm. The cells, to which the drug was not added and was substituted with the same quantity of the serum-free medium, serve as the reference. The cell vitality is counted on Day 4 of cultivation, using the formazan method (intravital staining of MTT cells). Toxicity of different drug doses is determined by the cell vitality as compared with the reference cells; the dose-dependent curve is built using obtained data, and the concentration that reduces cell vitality by 50% (CD50) is determined. […] It is also noteworthy that 50% toxic doses exceed HIV-1 effective doses by a factor of 2-4 (see Table 1) ."}, "HIV-1, GVK4046": {"system": "HIV-1, GVK4046", "test": "HIV-1 reproduction inhibition in MT-4 cell culture (p24 ELISA and MTT cell vitality, day 4)", "type": "cell-based", "details": "HIV-1, GVK4046 in MT-4 cell culture, 4 days; read-out: ID50 (the source's name)", "experimental": "The HIV inhibition study includes cultivation of primary infective MT-4 line lymphoid cells over the studied compounds, the ultimate concentrations of which in the culture medium range from 0.001 µg/ml to 100 µg/ml, during one passage, within 4 days.\nHIV reproduction inhibition in the sensitive cell culture is determined by the reduction in p24 virus-specific protein accumulation (according to the enzyme-linked immunosorbent assay) and by the increase in cell vitality over the drug as compared with the reference cells, on Day 4 of the cultivation, using 3-(4.5-dimethylthiazole-2-yl-)-2,5-diphenyl tetrazolium (MTT) bromide staining.\nThe impact of the studied compounds on HIV-1 reproduction in MT-4 cell culture is studied using a well-known technique."}},
  "data": [
    {"smiles": "Cc1cn([C@H]2C[C@H](N=[N+]=[N-])[C@@H](COP(=O)(O)C(N)=O)O2)c(=O)[nH]c1=O", "note": "[Acid form (reference), [(2S,3S,5R)-3-azido-5-(5-methyl-2,4-deoxythymidine-1-yl)oxolan-2-yl]methyl ester of carbamoyl phosphonic acid, reference compound]", "values": [
      {"measurement": "degrade", "setting": "[1]", "result": 40, "unit": "%"},
      {"measurement": "CD50", "setting": "MT-4 cells", "result": 2.6, "unit": "µM"},
      {"measurement": "IC50", "setting": "HIV-1, GVK4046", "result": 800, "unit": "nM"}
    ]}
  ]
}
